Test results as given in the NIST ThermoML archive (doi:10.1016/j.jct.2016.03.026).
Numbers after ± are expanded uncertainties.

Assay: xn = mol fraction of the nth substance listed
Settings: 263.15 K, Fluid (supercritical or subcritical phases), Vibrating tube method, x1 = 0.97

O=C=O [carbon dioxide] + CO
Settings | mass density [kg/m3]
13625 kPa | 1031.69 ± 0.8
13650 kPa | 1031.77 ± 0.8
13675 kPa | 1031.94 ± 0.8
13700 kPa | 1031.97 ± 0.8
13725 kPa | 1032.1 ± 0.8
13750 kPa | 1032.18 ± 0.8
13775 kPa | 1032.26 ± 0.8
13800 kPa | 1032.34 ± 0.8
13825 kPa | 1032.42 ± 0.8
13850 kPa | 1032.53 ± 0.8
13875 kPa | 1032.61 ± 0.8
13900 kPa | 1032.75 ± 0.8
13925 kPa | 1032.83 ± 0.8
13950 kPa | 1032.91 ± 0.8
13975 kPa | 1032.99 ± 0.8
14000 kPa | 1033.08 ± 0.8
14025 kPa | 1033.16 ± 0.8
14050 kPa | 1033.24 ± 0.8
14075 kPa | 1033.38 ± 0.8
14100 kPa | 1033.48 ± 0.8
14125 kPa | 1033.57 ± 0.8
14150 kPa | 1033.65 ± 0.8
14175 kPa | 1033.73 ± 0.8
14200 kPa | 1033.81 ± 0.8
14225 kPa | 1033.9 ± 0.8
14250 kPa | 1033.97 ± 0.8
14275 kPa | 1034.13 ± 0.8
14300 kPa | 1034.22 ± 0.8
14325 kPa | 1034.3 ± 0.8
14350 kPa | 1034.38 ± 0.8
14375 kPa | 1034.46 ± 0.8
14400 kPa | 1034.54 ± 0.8
14425 kPa | 1034.62 ± 0.8
14450 kPa | 1034.7 ± 0.8
14475 kPa | 1034.86 ± 0.8
14500 kPa | 1034.95 ± 0.8
14525 kPa | 1035.03 ± 0.8
14550 kPa | 1035.11 ± 0.8
14575 kPa | 1035.19 ± 0.8
14600 kPa | 1035.28 ± 0.8
14625 kPa | 1035.36 ± 0.8
14650 kPa | 1035.44 ± 0.8
14675 kPa | 1035.52 ± 0.8
14700 kPa | 1035.62 ± 0.8
14725 kPa | 1035.77 ± 0.8
14750 kPa | 1035.83 ± 0.8
14775 kPa | 1035.93 ± 0.8
14800 kPa | 1036.01 ± 0.8
14825 kPa | 1036.09 ± 0.8
14850 kPa | 1036.17 ± 0.8
14875 kPa | 1036.25 ± 0.8
14900 kPa | 1036.34 ± 0.8
14925 kPa | 1036.42 ± 0.8
14950 kPa | 1036.51 ± 0.8
14975 kPa | 1036.63 ± 0.8
15000 kPa | 1036.74 ± 0.8
15025 kPa | 1036.78 ± 0.8
15050 kPa | 1036.9 ± 0.8
15075 kPa | 1036.96 ± 0.8
15100 kPa | 1037.07 ± 0.8
15125 kPa | 1037.15 ± 0.8
15150 kPa | 1037.23 ± 0.8
15175 kPa | 1037.31 ± 0.8
15200 kPa | 1037.39 ± 0.8
15225 kPa | 1037.5 ± 0.8
15250 kPa | 1037.56 ± 0.8
15275 kPa | 1037.66 ± 0.8
15300 kPa | 1037.72 ± 0.8
15325 kPa | 1037.8 ± 0.8
15350 kPa | 1037.91 ± 0.8
15375 kPa | 1038.01 ± 0.8
15400 kPa | 1038.07 ± 0.8
15425 kPa | 1038.19 ± 0.8
15450 kPa | 1038.28 ± 0.8
15475 kPa | 1038.37 ± 0.8
15500 kPa | 1038.45 ± 0.8
15525 kPa | 1038.53 ± 0.8
15550 kPa | 1038.61 ± 0.8
15575 kPa | 1038.7 ± 0.8
15600 kPa | 1038.78 ± 0.8
15625 kPa | 1038.86 ± 0.8
15650 kPa | 1038.94 ± 0.8
15675 kPa | 1039.02 ± 0.8
15700 kPa | 1039.1 ± 0.8
15725 kPa | 1039.19 ± 0.8
15750 kPa | 1039.26 ± 0.8
15775 kPa | 1039.35 ± 0.8
15800 kPa | 1039.43 ± 0.8
15825 kPa | 1039.51 ± 0.8
15850 kPa | 1039.61 ± 0.8
15875 kPa | 1039.7 ± 0.8
15900 kPa | 1039.79 ± 0.8
15925 kPa | 1039.88 ± 0.8
15950 kPa | 1039.97 ± 0.8
15975 kPa | 1040.06 ± 0.8
16000 kPa | 1040.16 ± 0.8
16025 kPa | 1040.2 ± 0.8
16050 kPa | 1040.31 ± 0.8
16075 kPa | 1040.4 ± 0.8
16100 kPa | 1040.49 ± 0.8
16125 kPa | 1040.57 ± 0.8
16150 kPa | 1040.65 ± 0.8
16175 kPa | 1040.73 ± 0.8
16200 kPa | 1040.81 ± 0.8
16225 kPa | 1040.89 ± 0.8
16250 kPa | 1040.97 ± 0.8
16275 kPa | 1041.05 ± 0.8
16300 kPa | 1041.16 ± 0.8
16325 kPa | 1041.25 ± 0.8
16350 kPa | 1041.32 ± 0.8
16375 kPa | 1041.38 ± 0.8
16400 kPa | 1041.46 ± 0.8
16425 kPa | 1041.59 ± 0.8
16450 kPa | 1041.66 ± 0.8
16475 kPa | 1041.72 ± 0.8
16500 kPa | 1041.79 ± 0.8
16525 kPa | 1041.91 ± 0.8
16550 kPa | 1041.95 ± 0.8
16575 kPa | 1042.08 ± 0.8
16600 kPa | 1042.19 ± 0.8
16625 kPa | 1042.27 ± 0.8
16650 kPa | 1042.33 ± 0.8
16675 kPa | 1042.38 ± 0.8
16700 kPa | 1042.51 ± 0.8
16725 kPa | 1042.57 ± 0.8
16750 kPa | 1042.68 ± 0.8
16775 kPa | 1042.75 ± 0.8
16800 kPa | 1042.82 ± 0.8
16825 kPa | 1042.91 ± 0.8
16850 kPa | 1043.01 ± 0.8
16875 kPa | 1043.08 ± 0.8
16900 kPa | 1043.17 ± 0.8
16925 kPa | 1043.24 ± 0.8
16950 kPa | 1043.33 ± 0.8
16975 kPa | 1043.4 ± 0.8
17000 kPa | 1043.49 ± 0.8
17025 kPa | 1043.57 ± 0.8
17050 kPa | 1043.64 ± 0.8
17075 kPa | 1043.74 ± 0.8
17100 kPa | 1043.82 ± 0.8
17125 kPa | 1043.9 ± 0.8
17150 kPa | 1043.98 ± 0.8
17175 kPa | 1044.06 ± 0.8
17200 kPa | 1044.14 ± 0.8
17225 kPa | 1044.22 ± 0.8
17250 kPa | 1044.31 ± 0.8
17275 kPa | 1044.39 ± 0.8
17300 kPa | 1044.44 ± 0.8
17325 kPa | 1044.55 ± 0.8
17350 kPa | 1044.63 ± 0.8
17375 kPa | 1044.71 ± 0.8
17400 kPa | 1044.79 ± 0.8
17425 kPa | 1044.87 ± 0.8
17450 kPa | 1044.94 ± 0.8
17475 kPa | 1045.04 ± 0.8
17500 kPa | 1045.12 ± 0.8
17525 kPa | 1045.2 ± 0.8
17550 kPa | 1045.28 ± 0.8
17575 kPa | 1045.33 ± 0.8
17600 kPa | 1045.44 ± 0.8
17625 kPa | 1045.52 ± 0.8
17650 kPa | 1045.61 ± 0.8
17675 kPa | 1045.69 ± 0.8
17700 kPa | 1045.77 ± 0.8
17725 kPa | 1045.81 ± 0.8
17750 kPa | 1045.89 ± 0.8
17775 kPa | 1045.97 ± 0.8
17800 kPa | 1046.04 ± 0.8
17825 kPa | 1046.11 ± 0.8
17850 kPa | 1046.26 ± 0.8
17875 kPa | 1046.32 ± 0.8
17900 kPa | 1046.37 ± 0.8
17925 kPa | 1046.44 ± 0.8
17950 kPa | 1046.51 ± 0.8
17975 kPa | 1046.58 ± 0.8
18000 kPa | 1046.66 ± 0.8
18025 kPa | 1046.79 ± 0.8
18050 kPa | 1046.85 ± 0.8
18075 kPa | 1046.9 ± 0.8
18100 kPa | 1046.98 ± 0.8
18125 kPa | 1047.07 ± 0.8
18150 kPa | 1047.15 ± 0.8
18175 kPa | 1047.23 ± 0.8
18200 kPa | 1047.31 ± 0.8
18225 kPa | 1047.37 ± 0.8
18250 kPa | 1047.47 ± 0.8
18275 kPa | 1047.55 ± 0.8
18300 kPa | 1047.62 ± 0.8
18325 kPa | 1047.69 ± 0.8
18350 kPa | 1047.75 ± 0.8
18375 kPa | 1047.82 ± 0.8
18400 kPa | 1047.88 ± 0.8
18425 kPa | 1047.96 ± 0.8
18450 kPa | 1048.04 ± 0.8
18475 kPa | 1048.11 ± 0.8
18500 kPa | 1048.2 ± 0.8
18525 kPa | 1048.28 ± 0.8
18550 kPa | 1048.31 ± 0.8
18575 kPa | 1048.43 ± 0.8
18600 kPa | 1048.53 ± 0.8
18625 kPa | 1048.58 ± 0.8
18650 kPa | 1048.64 ± 0.8
18675 kPa | 1048.74 ± 0.8
18700 kPa | 1048.83 ± 0.8
18725 kPa | 1048.85 ± 0.8
18750 kPa | 1048.93 ± 0.8
18775 kPa | 1048.93 ± 0.8
18800 kPa | 1049.06 ± 0.8
18825 kPa | 1049.09 ± 0.8
18850 kPa | 1049.34 ± 0.8
18875 kPa | 1049.42 ± 0.8
18900 kPa | 1049.5 ± 0.8
18925 kPa | 1049.58 ± 0.8
18950 kPa | 1049.66 ± 0.8
18975 kPa | 1049.74 ± 0.8
19000 kPa | 1049.82 ± 0.8
19025 kPa | 1049.91 ± 0.8
19050 kPa | 1049.99 ± 0.8
19075 kPa | 1050.07 ± 0.8
19100 kPa | 1050.15 ± 0.8
19125 kPa | 1050.23 ± 0.8
19150 kPa | 1050.31 ± 0.8
19175 kPa | 1050.39 ± 0.8
19200 kPa | 1050.47 ± 0.8
19225 kPa | 1050.56 ± 0.8
19250 kPa | 1050.63 ± 0.8
19275 kPa | 1050.72 ± 0.8
19300 kPa | 1050.8 ± 0.8
19325 kPa | 1050.88 ± 0.8
19350 kPa | 1050.96 ± 0.8
19375 kPa | 1051.04 ± 0.8
19400 kPa | 1051.12 ± 0.8
19425 kPa | 1051.21 ± 0.8
19450 kPa | 1051.29 ± 0.8
19475 kPa | 1051.35 ± 0.8
19500 kPa | 1051.45 ± 0.8
19525 kPa | 1051.53 ± 0.8
19550 kPa | 1051.58 ± 0.8
19575 kPa | 1051.69 ± 0.8
19600 kPa | 1051.77 ± 0.8
19625 kPa | 1051.83 ± 0.8
19650 kPa | 1051.89 ± 0.8
19675 kPa | 1052.02 ± 0.8
